US7524503B2, “Human cytomegalovirus (HCMV) cytotoxic T cell epitopes, polyepitopes compositions comprising same and diagnostic and prophylactic and therapeutic uses therefor” (priority 2001, dated 2009)
Where “and” joins values, the source holds several entries; their conditions need not be identical. Equal entries are not always repeated. Where two headings read alike, the source gives them in different places.

Legend:
HLA A3 = biological target: T1, HLA A3 (Homo sapiens, UniProt P04439); test: MHC stabilization assay on T2 cells; format: cell-based; settings: HLA A3 on transfected T2 cells; relative increase vs no peptide at 26° C.
T1 construct: EGFP; expressed in transfected cells; host or cells: T2 cells
T1 sequence (P04439 25-365): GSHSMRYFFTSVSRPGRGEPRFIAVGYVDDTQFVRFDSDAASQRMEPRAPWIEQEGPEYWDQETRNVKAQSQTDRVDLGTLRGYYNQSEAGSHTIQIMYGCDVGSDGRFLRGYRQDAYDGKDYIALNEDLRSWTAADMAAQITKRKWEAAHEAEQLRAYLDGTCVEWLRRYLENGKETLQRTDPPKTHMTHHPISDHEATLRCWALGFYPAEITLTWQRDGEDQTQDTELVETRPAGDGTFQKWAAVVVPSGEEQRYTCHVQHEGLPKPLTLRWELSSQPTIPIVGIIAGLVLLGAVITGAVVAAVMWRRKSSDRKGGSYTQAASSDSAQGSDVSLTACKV
T1 sequence (P61769 21-119, further chain): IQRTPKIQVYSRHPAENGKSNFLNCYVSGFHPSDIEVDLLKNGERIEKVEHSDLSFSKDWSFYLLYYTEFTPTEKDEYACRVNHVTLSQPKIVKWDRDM

[1] = test system: PBMC from healthy HCMV seropositive donors; test: IFN-γ ELISPOT assay; format: cell-based, human; settings: peptide 10 μg/ml
In short: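 PBMC from healthy HCMV-seropositive donors (2.5×10^5 cells/well) were stimulated 18 h at 37° C with individual synthetic HCMV peptides (10 μg/ml) on anti-IFN-γ-coated nitrocellulose. IFN-γ spots were developed with biotinylated antibody and streptavidin-alkaline phosphatase and counted automatically. Counts were averaged over 3 wells, and no-peptide wells were subtracted.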

[2] = test system: peptide-sensitized autologous PHA blasts or LCLs; format: cell-based, human; design: key to CTL response: Y: Yes; ND: Not detected
CD4+ T cells = test: CD4+/CD8+ analysis of 20-mer peptides (intracellular IFN-γ staining or depletion ELISPOT); format: cell-based, human
Description: (§1) To determine whether a particular 20-mer peptide contained either a CD4^+- or CD8^+-restricted epitope, or both, CD4^+/CD8^+ cell depletion ELISPOT assays were performed on PBMC from healthy virus carriers. For any one experiment, three populations of cells were used: a) CD8^+-depleted PBMC, b) CD4^+-depleted PBMC, and c) non-depleted PBMC. These populations of cells were tested concurrently with the same peptides in a conventional ELISPOT assay as described herein above. DYNABEADS M-450 (Dynal, Oslo, Norway) that bound specifically to CD4^+- or CD8^+ cells were used to perform the depletion essentially according to manufacturers instructions. Beads were washed twice in cold PBS supplemented with 2% FCS using magnetic isolation. The requisite number of cells was resuspended in cold PBS supplemented with 2% FCS, added to the beads and then incubated at 4° C., in the dark, for 30 mins (CD8^+ beads) or 60 mins (CD4^+ beads). Populations were depleted of CD4^+ or CD8^+ cells using magnetic separation. After depletion, the non-attached cells were removed and washed once in growth medium, counted and used in conventional ELISPOT assay. Depleted cells were used at 1.7×10^5 cells per well and the non-depleted population was used at the standard 2.5×10^5 cells per well. After the depletion step, each respective cell population was assessed for the purity of CD4^+ and CD8^+ T cells by three-colour flow cytometry. Samples of depleted cell populations were stained with anti-CD3 antibody directly conjugated to fluorescein isothiocyanate (FITC), anti-CD4 antibody conjugated with phycoerythrin (PE) fluorochrome, and anti-CD8 antibody conjugated with Tricolor fluorochrome (described below). The percent of CD3^+/CD4^+ cells present within the CD8^+-depleted population and the percent of CD3^+/CD8^+ cells present within the CD4^+-depleted populations were assessed on FACSCalibur cytometer (Becton Dickinson). The purity of each population was greater than 90% and the results from the ELISPOT assays are expressed as the percentage of CD4+ or CD8^+ cells within the depleted populations that responded toward each peptide by producing IFN-γ.
(§2) PBMCs were incubated at 37° C. in RPMI+10% FCS with and without 10 μg/ml peptides for 6 hours. Golgiplug™ (Pharmingen, San Diego, Calif., USA) was added to the samples according to manufacturer's instructions during the second hour of incubation and cells activated with 25 ng/ml phorbol 12-myristidate 13-acetate (PMA; Sigma-Aldrich Co, St. Louis Mo.) and 1 μg/ml iomomycin (Sigma) acted as a positive control. Following the incubation, 1×10^6 cells/sample were washed and resuspended in staining buffer consisting of PBS with GolgiPlug™, 3% FCS and sodium azide. Cells were then stained with FITC conjugated anti-CD3-FITC (UCHT1, Immunotech, Marseille, France), and either Tricolor (TRI) conjugated anti-CD4 (S3.5, Caltag, Burlingame, Calif.) or anti-CD8 (3B5, Caltag) for 30 minutes, 4° C. in the dark. The cells were fixed for 20 min at 4° C. with Cytofix/Cytoperm™ (BD Biosciences) and resuspended in Perm/Wash™ permeabilization buffer (BD Biosciences) according to manufacturers protocol. Fixed cells were stained with phycoerythrin (PE) conjugated anti-human IFN-γ (B27, Pharmingen) for 30 min at 4° C. in the dark. As a negative control, cells were stained with appropriate isotype matched control antibodies. Cells were washed twice in permeabilization buffer and resuspended in staining buffer before analysis by three-colour flow cytometry on a FACSCalibur cytometer (BD Biosciences). All data analysis was carried out using FlowJo software (Tree Star, Inc. San Carlos, CA).
(§3) When using 20-mer peptides to map epitopes by ELISPOT, it is possible that some responses may be MHC class-II restricted, and not necessarily restricted through HLA class I alleles. It was evident throughout this study that some epitopes identified using ELISPOT could not be confirmed using cytotoxicity analysis. […]

CD8+ T cells = test: as above; format: cell-based, human
Description: as §1, §2, §3

[3] = overlapping 20mer peptides, Table 4

## RVTGGGAMA
HLA A3
  MSE (MHC stabilization efficiency): − (− = 0-50%)

## YLMDELRYVK (human cytomegalovirus gH CTL epitope peptide)
HLA A3
  MSE (MHC stabilization efficiency): − (− = 0-50%)

## PQYSEHPTFTSQYRIQGKLE
[1]; donor delta
  ELISPOT Responses (SFC/10^6 PBMC): 980 SFC/10^6 PBMC
[1]; donor four
  ELISPOT Responses (SFC/10^6 PBMC): MB(413) SFC/10^6 PBMC
[1]; donor fourteen
  ELISPOT Responses (SFC/10^6 PBMC): 1393 SFC/10^6 PBMC
[2]
  CTL response: Y
CD4+ T cells; donor delta
  Responding cells (% CD4): 0%
CD4+ T cells; donor four
  Responding cells (% CD4): 0.05%
CD4+ T cells; donor fourteen
  Responding cells (% CD4): 1.69%
CD8+ T cells; donor delta
  Responding cells (% CD8): 0.87%
CD8+ T cells; donor four
  Responding cells (% CD8): 0%
CD8+ T cells; donor fourteen
  Responding cells (% CD8): 0.96%

## QYDPVAALFFFDIDLLLQRG
[1]; donor seven
  ELISPOT Responses (SFC/10^6 PBMC): SB(97) SFC/10^6 PBMC
[2]; [3]
  CTL response: Y
CD4+ T cells; donor seven
  Responding cells (% CD4): 0.22%
CD8+ T cells; donor seven
  Responding cells (% CD8): 0.03%

## QAIRETVELRQYDPVAALFF
[1]; donor alpha
  ELISPOT Responses (SFC/10^6 PBMC): 102 SFC/10^6 PBMC
[1]; donor seven
  ELISPOT Responses (SFC/10^6 PBMC): 241 SFC/10^6 PBMC
[1]; donor two
  ELISPOT Responses (SFC/10^6 PBMC): JD(2593) SFC/10^6 PBMC
[2]; [3]
  CTL response: Y
CD4+ T cells; donor two
  Responding cells (% CD4): 0.28%
CD8+ T cells; donor two
  Responding cells (% CD8): 0.33%

## MQLIPDDYSNTHSTRYVTVK (human cytomegalovirus gB CTL epitope peptide)
[1]; donor four
  ELISPOT Responses (SFC/10^6 PBMC): 238 SFC/10^6 PBMC and 302 SFC/10^6 PBMC
[1]; donor seven
  ELISPOT Responses (SFC/10^6 PBMC): SB(157) SFC/10^6 PBMC
[2]; [3]
  CTL response: Y
CD4+ T cells; donor four
  Responding cells (% CD4): 0.06%
CD8+ T cells; donor four
  Responding cells (% CD8): 0.03%

## FEQPTETPPEDLDTLSLAIE (human cytomegalovirus IE2 CTL epitope peptide)
[1]; donor fourteen
  ELISPOT Responses (SFC/10^6 PBMC): RK(791) SFC/10^6 PBMC
[2]; [3]
  CTL response: Y
CD4+ T cells; donor fourteen
  Responding cells (% CD4): 0.2%
CD8+ T cells; donor fourteen
  Responding cells (% CD8): 0.35%

## IQIIYTRNHEVKSEVDAVRC
[1]; donor delta
  ELISPOT Responses (SFC/10^6 PBMC): 203 SFC/10^6 PBMC
[1]; donor seven
  ELISPOT Responses (SFC/10^6 PBMC): 288 SFC/10^6 PBMC
[2]; [3]
  CTL response: Y
CD4+ T cells; donor delta
  Responding cells (% CD4): 0%
CD8+ T cells; donor delta
  Responding cells (% CD8): 0.19%

## ATVQGQNLKYQEFFWDANDI
[1]; donor epsilon
  ELISPOT Responses (SFC/10^6 PBMC): SC(687) SFC/10^6 PBMC
[1]; donor five
  ELISPOT Responses (SFC/10^6 PBMC): 226 SFC/10^6 PBMC
[1]; donor gamma
  ELISPOT Responses (SFC/10^6 PBMC): 202 SFC/10^6 PBMC
[1]; donor three
  ELISPOT Responses (SFC/10^6 PBMC): 189 SFC/10^6 PBMC
[1]; donor twelve
  ELISPOT Responses (SFC/10^6 PBMC): 25 SFC/10^6 PBMC
[2]; [3]
  CTL response: Y
CD4+ T cells; donor twelve
  Responding cells (% CD4): 0.03%
CD8+ T cells; donor twelve
  Responding cells (% CD8): 0%

## IIKPGKISHIMLDVAFTSHE
[1]; donor eight
  ELISPOT Responses (SFC/10^6 PBMC): JW(370) SFC/10^6 PBMC
[1]; donor epsilon
  ELISPOT Responses (SFC/10^6 PBMC): 691 SFC/10^6 PBMC
[1]; donor gamma
  ELISPOT Responses (SFC/10^6 PBMC): 177 SFC/10^6 PBMC
[1]; donor seven
  ELISPOT Responses (SFC/10^6 PBMC): SB(155), SFC/10^6 PBMC
[2]; [3]
  CTL response: Y
CD4+ T cells; donor eight
  Responding cells (% CD4): 0.04%
CD4+ T cells; donor seven
  Responding cells (% CD4): 0.02%
CD8+ T cells; donor eight
  Responding cells (% CD8): 0.05%
CD8+ T cells; donor seven
  Responding cells (% CD8): 0.03%

## YYTSAFVFPTKDVALRHVVC
[1]; donor eight
  ELISPOT Responses (SFC/10^6 PBMC): JW(858) SFC/10^6 PBMC
[1]; donor seven
  ELISPOT Responses (SFC/10^6 PBMC): 775 SFC/10^6 PBMC
[1]; donor two
  ELISPOT Responses (SFC/10^6 PBMC): 358 SFC/10^6 PBMC
[2]; [3]
  CTL response: Y
CD4+ T cells; donor two
  Responding cells (% CD4): 0.05%
CD8+ T cells; donor two
  Responding cells (% CD8): 0.04%

## QQNQWKEPDVYYTSAFVFPT
[1]; donor eight
  ELISPOT Responses (SFC/10^6 PBMC): JW(600) SFC/10^6 PBMC
[2]; [3]
  CTL response: Y
CD4+ T cells; donor eight
  Responding cells (% CD4): 0%
CD8+ T cells; donor eight
  Responding cells (% CD8): 0.03%

## SICPSQEPMSIYVYALPLKM
[1]; donor eight
  ELISPOT Responses (SFC/10^6 PBMC): 3178 SFC/10^6 PBMC
[2]; [3]
  CTL response: Y
CD4+ T cells; donor eight
  Responding cells (% CD4): 1.18%
CD8+ T cells; donor eight
  Responding cells (% CD8): 1.36%

## TAAKAYAVGQFEQPTETPPE (human cytomegalovirus IE2 CTL epitope peptide)
[1]; donor fourteen
  ELISPOT Responses (SFC/10^6 PBMC): 859 SFC/10^6 PBMC
[1]; donor seven
  ELISPOT Responses (SFC/10^6 PBMC): 326 SFC/10^6 PBMC
[2]; [3]
  CTL response: Y
CD4+ T cells; donor fourteen
  Responding cells (% CD4): 0.2%
CD8+ T cells; donor fourteen
  Responding cells (% CD8): 0.35%

## CSPDEIMAYAQKIFKILDEE
[1]; donor five
  ELISPOT Responses (SFC/10^6 PBMC): CS(1532) SFC/10^6 PBMC
[2]
  CTL response: Y
CD4+ T cells; donor five
  Responding cells (% CD4): 0.53%
CD8+ T cells; donor five
  Responding cells (% CD8): 0.4%

## SQYRIQGKLEYRHTWDRHDE
[1]; donor delta
  ELISPOT Responses (SFC/10^6 PBMC): SE(1203) SFC/10^6 PBMC
[2]; [3]
  CTL response: Y
CD4+ T cells; donor delta
  Responding cells (% CD4): 0%
CD8+ T cells; donor delta
  Responding cells (% CD8): 2.0%
